Data on nine molecules can be found in article PMC5366925, “Novel 1, 4-dihydropyridines for L-type calcium channel as antagonists for cadmium toxicity” (Scientific Reports, 2017).

Converted amounts (≈) assume the structure as drawn.

In series [1] the test system is A7r5 cells (containing L-type Ca2+ channels). The series can be described thus: Intracellular Ca2+ measurement (Fluo-4 NW), CaCl2/KCl-induced increase. Type of series: cell-based, rat. The note with it: for IC50: Rattus norvegicus, A7r5 cells, 1.5 mM CaCl2 and 50 mM KCl, mean ± SD, unit printed only in abstract, not in Table 2, read-out: Calcium overload-preventing activity (IC50), A7r5; for fold higher activity in A7r5 cells than in SH-SY5Y cells: A7r5 vs SH-SY5Y IC50. The method, then:
(§1) The A7r5 (rat aorta smooth muscle cells) and SH-SY5Y (human neuroblastoma cell line) were obtained from the National Centre for Cell Science, Pune, India. The cells were grown at 37.5 °C in a humidified atmosphere with 5% CO2/95% air in Dulbecco’s modified Eagle medium (DMEM), restraining 2 mM of glutamine and supplemented with 10% fetal bovine serum. Once a week the cells were passaged using 0.25% trypsin, 0.53 mM EDTA (Ethylene diamine tetra acetic acid) solution and grown in […] plastic culture flasks until confluence.
(§2) In the experiment, SH-SY5Y cells were plated in 96-well plates at a density of 30,000 cells per well and incubated for 24 h. A7r5 cells were seeded into 96-well plates at a density of 10,000 cells per well and incubated for 72 h. the intracellular [Ca^2+]i concentration changes were studied using the Fluo-4 NW Calcium Assay Kit (Invitrogen, Sweden), as per the manufacturer’s instructions. Both SH-SY5Y and A7r5 cells were loaded with […] for 45 min. Then, the cells were pre-incubated in the dark for 15 min with the tested compounds at concentrations from […]. The compounds were dissolved in distilled water. Application of carbachol (100 nM) to Fura-4 loaded SH-SY5Y cells was used to stimulate changes in the intracellular [Ca^2+]i concentration, whereas A7r5 cells were treated with 1.5 mM CaCl2 and KCl (50 mM) for 5 min to induce an increase in the [Ca^2+] ion concentration. The intracellular [Ca^2+] ion concentration was measured using the fluorescence spectrophotometer’s (Thermo Ascient, Hyderabad) settings appropriate for an excitation at 494 nm and an emission at 516 nm. Amlodipine was used as the positive control. IC50 values as mean ± SD were calculated using Graph Pad Prism 5.0 software.

Series [2] relates to SH-SY5Y cells (containing L- and N-type Ca2+ channels). In words: Intracellular Ca2+ measurement (Fluo-4 NW), carbachol-induced increase. It counts as cell-based. The note with it: Homo sapiens, carbachol 100 nM, mean ± SD, unit printed only in abstract, not in Table 2, read-out: Calcium overload-preventing activity (IC50), SH-SY5Y. As for the experimental part:
as §1, §2

Another series concerns A7r5 cells. In words: Cadmium cytotoxicity study (LDH release). Type of series: cell-based, rat. Particulars: for fold decrease in cell lethality (ratio of LC50 vs CdCl2 alone): then CdCl2 for 4 h. As for the experimental part: The A7r5 cell line was obtained from National Center for Cell Sciences, Pune, India. The cells were grown in Dulbecco’s Modified Eagles Medium (DMEM) supplemented with 5% fetal bovine serum at 37 °C in an atmosphere of 90% air/10% CO2. For determinations of cell viability, A7r5 cells were removed from stock flasks by mild digestion with trypsin-EDTA solution and the stock cultures were developed in 25 cm^2 culture flasks and all trials were done in 96 micro titer plates. After plating, the cells were allowed to grow to confluence for 7–10 days before use.
The rat aorta smooth muscle A7r5 cells received one of the four treatments following overnight incubation. The first group received CdCl2 at 1, 10, 20, 30, 40, 50 μM prepared in complete culture for 4 h incubation. The second group received pretreatment with 200 μM AD for 1 h followed by the addition of 1, 10, 20, 30, 40, 50 μM CdCl2 for 4 h incubation. The third group received pretreatment with 200 μM compound 5a for 1 h followed by the addition of 1, 10, 20, 30, 40, 50 μM CdCl2 for 4 h incubation. The fourth group received pretreatment with 200 μM compound 5a for 1 h followed by the addition of 1, 10, 20, 30, 40, 50 μM CdCl2 for 4 h incubation. The CdCl2 different concentrations used in this test were chosen based on preliminary studies to identify concentrations which ranged from producing no effects to cytolethality. A short term exposure (4 h) was chosen to evaluate the effects of metallothionein induction. The cell viability was assessed by measurement of (Lactate Dehydrogenase) LDH released into the medium. LDH release was expressed as a percent of the maximum after lysis of cells with TritonX-100.
On the technique in general: LDH in the medium is a marker of cell lysis.

For series [3], the system named is mitochondrial functioning. The series can be described thus: Effect on mitochondrial functioning. The note with it: at concentrations close to those demonstrating L-type calcium channel blocking activity.

On to `CCOC(=O)C1=C(COCCN)NC(C)=C(C(=O)OC)C1c1ccccc1Cl` (centres unmarked) [Amlodipine, reference compound], for which the 50% inhibitory concentration (IC50) (as a rule, the concentration at which inhibition is half-maximal) came out at 0.45 ± 0.52 µg/mL (≈ 1.1 µM) in series [1] and 11 ± 0.61 µg/mL (≈ 26.9 µM) in series [2]. Further, the “loss of cell viability ablated by pretreatment” value with A7r5 cells (200 μM for 1 h pretreatment, 20 μM CdCl2) was found to be 75%. Besides, the “fold decrease in cell lethality (ratio of LC50 vs CdCl2 alone)” value with A7r5 cells (200 μM for 1 h pretreatment) is reported as 2.0 fold. Also, the “effect on LDH leakage” value in the series with A7r5 cells (1 h pretreatment with 200 μM, compound alone) was “did not affect LDH leakage”.

`[Cl][Cd][Cl]` [CdCl2]: in the series with A7r5 cells (4 h exposure, CdCl2 alone, read-out: LC50 (CdCl2 induced cell death)), the CC50 was 30.2 ± 0.82 µM.

In the case of `CCOC(=O)C1=C(COCCNC(=O)OCC(C)C)NC=C(C(=O)OC)C1c1ccccc1Cl` (centres unmarked) [3e], the concentration for half-maximal inhibition (IC50) in series [1] stood at 8.35 ± 0.52 µg/mL (≈ 16.9 µM); in series [2] it was 40 ± 0.43 µg/mL (≈ 80.8 µM).

For the molecule `CCOC(=O)C1=C(COCCNS(=O)(=O)c2ccc(Cl)c([N+](=O)[O-])c2)NC=C(C(=O)OC)C1c1ccccc1Cl` (centres unmarked) [5c], the IC50 in series [1] was determined as 0.43 ± 0.52 µg/mL (≈ 0.7 µM); in series [2], 15 ± 0.53 µg/mL (≈ 24.4 µM).

On to `CCOC(=O)C1=C(COCCNS(=O)(=O)C(F)(F)F)NC=C(C(=O)OC)C1c1ccccc1Cl` (centres unmarked) [5e], for which, in series [1], the “fold higher activity in A7r5 cells than in SH-SY5Y cells” value is recorded as “at least 10 fold” and the IC50 turned out to be 0.25 ± 0.63 µg/mL (≈ 0.474 µM). Moreover, in series [2], the IC50 worked out at 10 ± 0.18 µg/mL (≈ 19 µM). The “fold decrease in cell lethality (ratio of LC50 vs CdCl2 alone)” value with A7r5 cells (200 μM for 1 h pretreatment) is reported as 2.3 fold. For the same molecule, in series [3], the “effect on mitochondrial functioning” value is given as “did not affect mitochondrial functioning”.

For `CCOC(=O)C1=C(COCCNS(=O)(=O)c2ccc([N+](=O)[O-])cc2)NC=C(C(=O)OC)C1c1ccccc1Cl` (centres unmarked) [5a], in series [1], the “fold higher activity in A7r5 cells than in SH-SY5Y cells” value is “at least 10 fold” and the IC50 was 0.18 ± 0.02 µg/mL (≈ 0.31 µM). Besides, the IC50 in series [2] was determined as 8 ± 0.23 µg/mL (≈ 13.8 µM). The “fold decrease in cell lethality (ratio of LC50 vs CdCl2 alone)” value in the series with A7r5 cells (200 μM for 1 h pretreatment) came to 2.5 fold. The “effect on mitochondrial functioning” value in series [3] is listed as “did not affect mitochondrial functioning”.

As to `CCOC(=O)C1=C(COCCNS(=O)(=O)c2ccc(Br)cc2)NC=C(C(=O)OC)C1c1ccccc1Cl` (centres unmarked) [5b], the IC50 in series [1] was 0.52 ± 0.48 µg/mL (≈ 0.847 µM); in series [2], 20 ± 0.52 µg/mL (≈ 32.6 µM).

`CCOC(=O)NCCOCC1=C(C(=O)OCC)C(c2ccccc2Cl)C(C(=O)OC)=CN1` (centres unmarked) [3d]: the IC50 in series [1] is 4.25 ± 0.25 µg/mL (≈ 9.1 µM); in series [2] it was 14 ± 0.39 µg/mL (≈ 30 µM).

As to `CCOC(=O)C1=C(COCCNS(=O)(=O)c2ccc(F)cc2)NC=C(C(=O)OC)C1c1ccccc1Cl` (centres unmarked) [5d], the figures for the 50% inhibitory concentration (IC50) in series [1] and in series [2] were 0.59 ± 0.61 µg/mL (≈ 1.07 µM) and 21 ± 0.49 µg/mL (≈ 38 µM), respectively.
